The results in this text go back to patent publication US20240101540A1, “TARGETED PROTEIN DEGRADATION OF PARP14 FOR USE IN THERAPY” (Ribon Therapeutics, Inc., priority 2022, published 2024).

Some results are limits rather than exact numbers.

The DC50 is the concentration giving 50% degradation.

The target of the test is T1, catalytic domain of human PARP14 (residues 1611 to 1801) with NanoLuc tag (Homo sapiens, UniProt Q460N5).
T1 construct: expressed in transfected cells; host or cells: HEK-293T cells (ATCC), pcDNA3.1(-) vector
T1 sequence (Q460N5 1611-1801): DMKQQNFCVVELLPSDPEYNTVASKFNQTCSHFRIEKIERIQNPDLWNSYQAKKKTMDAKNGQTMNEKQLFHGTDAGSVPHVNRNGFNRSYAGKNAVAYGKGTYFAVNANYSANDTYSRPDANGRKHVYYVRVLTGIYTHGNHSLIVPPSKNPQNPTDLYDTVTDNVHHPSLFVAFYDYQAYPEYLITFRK
In words: NanoLuc assay for the degradation of PARP14 (NanoLuc-tagged PARP14 overexpressed in HEK-293T cells, 2 hours). The format is cell-based. Particulars: Assay A (Example A): NanoLuc-tagged PARP14 degradation in HEK-293T cells, read-out: DC50. How it is done:
The insert also contained a NanoLuc tag on the N terminus of the PARP14 protein.
Degradation of PARP14 protein was assessed using measurement of the NanoLuc tag as proxy for the PARP14 protein. […] Plasmid DNA was diluted in empty vector DNA then added to 1.163 mL of phenol red free OptiMEM (Thermo Fisher). Plasmid DNA concentrations used in each assay described in Table 1. The plasmid DNA was mixed with 78.5 μL of Fugene HD (Promega) and allowed to incubate 5 minutes.
The transfection was incubated for 24 hrs at 37 degrees in an incubator supplemented with 5% CO2. The cells were then trypsinized and brought up in phenol red free OptiMEM media. […] 40 nL of a dose response curve diluted in DMSO of each test compound was added to the cell plate using a Mosquito (TTP Labtech) and the plate was incubated at 37° C. for 2 hours. Assay plate was brought to room temperature then 20 μL per well of NanoGlo (Promega) was added to the plate. Luminescence was measured on an Envision (Perkin Elmer).
The average DMSO was calculated from 32 wells containing 0.1% DMSO only in columns 12 and 24 of the assay plate. The % of DMSO values were calculated as described below: […]
The % of DMSO values were plotted as a function of compound concentration and the following 4-parameter fit was applied to derive the DC50 values:
where top, bottom, and Hill Coefficient are allowed to float. Y is the % of DMSO and X is the compound concentration
DC50 data for the Example compounds is provided below in Table 2 (“+” is <0.1 μM; “++” is ≥0.1 μM and <1 μM; and “+++” is ≥1 μM).
Take `CN1CCC(SCc2nc3cc(OCC4CCN(c5ccc6c(c5)C(=O)N(C5CCC(=O)NC5=O)C6=O)CC4)cc(F)c3c(=O)[nH]2)CC1` (stereo not drawn) [Example 44, 2-(2,6-dioxopiperidin-3-yl)-5-(4-(((5-fluoro-2-(((1-methylpiperidin-4-yl)thio)methyl)-4-oxo-3,4-dihydroquinazolin-7-yl)oxy)methyl)piperidin-1-yl)isoindoline-1,3-dione]: the DC50 was less than 100 nM.
To `O=C1CCC(N2C(=O)c3ccc(/C=C/CN4CCC(COc5cc(F)c6c(=O)[nH]c(CSC7CCOCC7)nc6c5)CC4)cc3C2=O)C(=O)N1` (stereo not drawn) [Example 43, (E)-2-(2,6-dioxopiperidin-3-yl)-5-(3-(4-(((5-fluoro-4-oxo-2-(((tetrahydro-2H-pyran-4-yl)thio)methyl)-3,4-dihydroquinazolin-7-yl)oxy)methyl)piperidin-1-yl)prop-1-en-1-yl)isoindoline-1,3-dione] belongs less than 100 nM; to `O=C1CCC(N2C(=O)c3cccc(NCC(=O)N4CCC(COc5cc(F)c6c(=O)[nH]c(CSC7CCOCC7)nc6c5)CC4)c3C2=O)C(=O)N1` (stereo not drawn) [Example 6, 2-(2,6-dioxopiperidin-3-yl)-4-((2-(4-(((5-fluoro-4-oxo-2-(((tetrahydro-2H-pyran-4-yl)thio)methyl)-3,4-dihydroquinazolin-7-yl)oxy)methyl)piperidin-1-yl)-2-oxoethyl)amino)isoindoline-1,3-dione], less than 100 nM; to `O=C1CCC(N2Cc3c(C#CCN4CCC(COc5cc(F)c6c(=O)[nH]c(CSC7CCOCC7)nc6c5)CC4)cccc3C2=O)C(=O)N1` (stereo not drawn) [Example 30, 3-(4-(3-(4-(((5-fluoro-4-oxo-2-(((tetrahydro-2H-pyran-4-yl)thio)methyl)-3,4-dihydroquinazolin-7-yl)oxy)methyl)piperidin-1-yl)prop-1-yn-1-yl)-1-oxoisoindolin-2-yl)piperidine-2,6-dione], less than 100 nM.
Take `O=C1CCC(N2C(=O)c3cccc(N4CCC(CN5CCC(COc6cc(F)c7c(=O)[nH]c(CSC8CCOCC8)nc7c6)CC5)CC4)c3C2=O)C(=O)N1` (stereo not drawn) [Example 35, 2-(2,6-dioxopiperidin-3-yl)-4-(4-((4-(((5-fluoro-4-oxo-2-(((tetrahydro-2H-pyran-4-yl)thio)methyl)-3,4-dihydroquinazolin-7-yl)oxy)methyl)piperidin-1-yl)methyl)piperidin-1-yl)isoindoline-1,3-dione]: the DC50 was less than 100 nM.
Turning to `O=C1CCC(Nc2ccc(N3CCC(N4CCC(COc5cc(F)c6c(=O)[nH]c(CSC7CCN(CC(F)(F)F)CC7)nc6c5)CC4)CC3)cc2)C(=O)N1` (stereo not drawn) [Example 89, 3-((4-(4-(((5-fluoro-4-oxo-2-(((1-(2,2,2-trifluoroethyl)piperidin-4-yl)thio)methyl)-3,4-dihydroquinazolin-7-yl)oxy)methyl)-[1,4′-bipiperidin]-1′-yl)phenyl)amino)piperidine-2,6-dione], the DC50 was less than 100 nM.
To `O=C1CCC(N2C(=O)c3cccc(OC4CC(CN5CCC(COc6cc(F)c7c(=O)[nH]c(CSC8CCOCC8)nc7c6)CC5)C4)c3C2=O)C(=O)N1` (single isomer, unassigned) [Example 80a, 2-(2,6-dioxopiperidin-3-yl)-4-((1r,3r)-3-((4-(((5-fluoro-4-oxo-2-(((tetrahydro-2H-pyran-4-yl)thio)methyl)-3,4-dihydroquinazolin-7-yl)oxy)methyl)piperidin-1-yl)methyl)cyclobutoxy)isoindoline-1,3-dione] belongs less than 100 nM; to `O=C1CCC(N2C(=O)c3ccc(NCC(=O)N4CCC(COc5cc(F)c6c(=O)[nH]c(CSC7CCOCC7)nc6c5)CC4)cc3C2=O)C(=O)N1` (stereo not drawn) [Example 14, 2-(2,6-dioxopiperidin-3-yl)-5-((2-(4-(((5-fluoro-4-oxo-2-(((tetrahydro-2H-pyran-4-yl)thio)methyl)-3,4-dihydroquinazolin-7-yl)oxy)methyl)piperidin-1-yl)-2-oxoethyl)amino)isoindoline-1,3-dione], less than 100 nM.
To `O=C1CCC(N2Cc3cc(C#CCN4CCC(COc5cc(F)c6c(=O)[nH]c(CSC7CCOCC7)nc6c5)CC4)ccc3C2=O)C(=O)N1` (stereo not drawn) [Example 29, 3-(5-(3-(4-(((5-fluoro-4-oxo-2-(((tetrahydro-2H-pyran-4-yl)thio)methyl)-3,4-dihydroquinazolin-7-yl)oxy)methyl)piperidin-1-yl)prop-1-yn-1-yl)-1-oxoisoindolin-2-yl)piperidine-2,6-dione] belongs less than 100 nM; to `O=C1CCC(N2C(=O)c3ccc(C#CCN4CCC(COc5cc(F)c6c(=O)[nH]c(CSC7CCOCC7)nc6c5)CC4)cc3C2=O)C(=O)N1` (stereo not drawn) [Example 27, 2-(2,6-dioxopiperidin-3-yl)-5-(3-(4-(((5-fluoro-4-oxo-2-(((tetrahydro-2H-pyran-4-yl)thio)methyl)-3,4-dihydroquinazolin-7-yl)oxy)methyl)piperidin-1-yl)prop-1-yn-1-yl)isoindoline-1,3-dione], less than 100 nM.
For the compound `O=C1CCC(Nc2ccc(NC3CCN(CCN4CCC(COc5cc(F)c6c(=O)[nH]c(CSC7CCOCC7)nc6c5)CC4)CC3)cc2)C(=O)N1` (stereo not drawn) [Example 94, 3-((4-((1-(2-(4-(((5-fluoro-4-oxo-2-(((tetrahydro-2H-pyran-4-yl)thio)methyl)-3,4-dihydroquinazolin-7-yl)oxy)methyl)piperidin-1-yl)ethyl)piperidin-4-yl)amino)phenyl)amino)piperidine-2,6-dione], the DC50 is less than 100 nM.
To `O=C1CCC(Nc2ccc(N3CC(N4CCC(COc5cc(F)c6c(=O)[nH]c(CSC7CCOCC7)nc6c5)CC4)C3)cc2)C(=O)N1` (stereo not drawn) [Example 51, 3-((4-(3-(4-(((5-fluoro-4-oxo-2-(((tetrahydro-2H-pyran-4-yl)thio)methyl)-3,4-dihydroquinazolin-7-yl)oxy)methyl)piperidin-1-yl)azetidin-1-yl)phenyl)amino)piperidine-2,6-dione] belongs less than 100 nM; to `O=C1CCC(N2C(=O)c3ccc(OC4CC(CN5CCC(COc6cc(F)c7c(=O)[nH]c(CSC8CCOCC8)nc7c6)CC5)C4)cc3C2=O)C(=O)N1` (stereo not drawn) [Example 79a, 2-(2,6-dioxopiperidin-3-yl)-5-((1r,3r)-3-((4-(((5-fluoro-4-oxo-2-(((tetrahydro-2H-pyran-4-yl)thio)methyl)-3,4-dihydroquinazolin-7-yl)oxy)methyl)piperidin-1-yl)methyl)cyclobutoxy)isoindoline-1,3-dione], less than 100 nM.
Then `O=C1CCC(N2C(=O)c3cccc(NCCCCCCCCC(=O)N4CCC(COc5cc(F)c6c(=O)[nH]c(CSC7CCOCC7)nc6c5)CC4)c3C2=O)C(=O)N1` (stereo not drawn) [Example 9, 2-(2,6-dioxopiperidin-3-yl)-4-((9-(4-(((5-fluoro-4-oxo-2-(((tetrahydro-2H-pyran-4-yl)thio)methyl)-3,4-dihydroquinazolin-7-yl)oxy)methyl)piperidin-1-yl)-9-oxononyl)amino)isoindoline-1,3-dione], with less than 100 nM.
To `O=C1CCC(Nc2cccc(N3CCN(CCN4CCC(COc5cc(F)c6c(=O)[nH]c(CSC7CCOCC7)nc6c5)CC4)CC3)c2)C(=O)N1` (stereo not drawn) [Example 63, 3-((3-(4-(2-(4-(((5-fluoro-4-oxo-2-(((tetrahydro-2H-pyran-4-yl)thio)methyl)-3,4-dihydroquinazolin-7-yl)oxy)methyl)piperidin-1-yl)ethyl)piperazin-1-yl)phenyl)amino)piperidine-2,6-dione] belongs less than 100 nM.
Regarding `O=C(CN1CCC(COc2cc(F)c3c(=O)[nH]c(CSC4CCOCC4)nc3c2)CC1)NCCCCCCNc1cccc2c1C(=O)N(C1CCC(=O)NC1=O)C2=O` (stereo not drawn) [Example 1, N-(6-((2-(2,6-dioxopiperidin-3-yl)-1,3-dioxoisoindolin-4-yl)amino)hexyl)-2-(4-(((5-fluoro-4-oxo-2-(((tetrahydro-2H-pyran-4-yl)thio)methyl)-3,4-dihydroquinazolin-7-yl)oxy)methyl)piperidin-1-yl)acetamide], the DC50 is less than 100 nM.
To `O=C1CCC(N2C(=O)c3cccc(NCCCCC(=O)N4CCC(COc5cc(F)c6c(=O)[nH]c(CSC7CCOCC7)nc6c5)CC4)c3C2=O)C(=O)N1` (stereo not drawn) [Example 12, 2-(2,6-dioxopiperidin-3-yl)-4-((5-(4-(((5-fluoro-4-oxo-2-(((tetrahydro-2H-pyran-4-yl)thio)methyl)-3,4-dihydroquinazolin-7-yl)oxy)methyl)piperidin-1-yl)-5-oxopentyl)amino)isoindoline-1,3-dione] belongs less than 100 nM; to `O=C(CN1CCC(COc2cc(F)c3c(=O)[nH]c(CSC4CCOCC4)nc3c2)CC1)NCCNc1cccc2c1C(=O)N(C1CCC(=O)NC1=O)C2=O` (stereo not drawn) [Example 2, N-(2-((2-(2,6-dioxopiperidin-3-yl)-1,3-dioxoisoindolin-4-yl)amino)ethyl)-2-(4-(((5-fluoro-4-oxo-2-(((tetrahydro-2H-pyran-4-yl)thio)methyl)-3,4-dihydroquinazolin-7-yl)oxy)methyl)piperidin-1-yl)acetamide], less than 100 nM.
